Data as given in patent US20120329770A1, “CEPHALOSPORIN DERIVATIVES USEFUL AS BETA-LACTAMASE INHIBITORS AND COMPOSITIONS AND METHODS OF USE THEREOF” (priority 2010, published 2012).

Assays:
[1] = test system: Pseudomonas aeruginosa IS 5563; experiment: Antimicrobial MIC / checkerboard assay for synergy with meropenem; assay type: cell-based; conditions: for FIC: P. aeruginosa IS 5563, meropenem + compound, checkerboard
Description: (§1) Assays were conducted as described by Weigand et al. (Weigand, I.; Hilpert, K.; Hancock, R. E. Nat. Protocols 2008, 3, 163-175).
(§2) To determine the lowest concentration of an antimicrobial agent that inhibits visible growth of a microorganism, 50 μL of compound solution and 50 μL of buffer solution were added to each well at the desired concentration(s) (i.e. 4×the final concentration) as well as a zero control. Stock solutions of 10 mg/mL, were prepared in DMSO, followed by two-fold serial dilutions in Müeller-Hinton media and 100 μL of bacteria (ca. 5×10^5 CFU/mL) was added to each well. Plate counts were performed on the control wells to determine bacterial innoculum level. The innoculum was prepared by taking an overnight culture in Müeller-Hinton media and diluting to McFarland's 0.5 standard, and diluting a further 1:100 prior to addition to the plate. Lanes with no bacteria added served as sterility controls and lanes with no compound served as growth controls. Organisms were allowed to grow overnight at 37° C. in a humid environment and the plates were monitored at 625 nm for growth. MIC was determined to be the last well with no growth.
(§3) In the checkerboard assay one compound is serially diluted along the ordinate, and the second compound is serially diluted along the abscissa. […] A 50 μL aliquot of the compound was added to each well at the desired concentration(s) (i.e. 4×the final concentration) as well as a zero control. Stock solutions of 10 mg/mL of compound were prepared in DMSO, followed by two-fold serial dilutions in Müeller-Hinton media. Finally, 100 μL of bacteria (ca. 5×10^5 CFU/mL) was added to each well. Plate counts were performed on the control wells. Innoculum was prepared by taking an overnight culture in Müeller-Hinton media and diluting to McFarland's 0.5 standard, and diluting a further 1:100 prior to addition to the plate. […] The final volume in each well was 200 μL. The plates were allowed to grow overnight at 37° C. in a humid environment and were monitored at 625 nm for growth. […] Sterility controls and growth controls were included on each plate. The fractional inhibitory concentration (FIC) was determined as follows:
(§4) Results were interpreted in the following way: Synergistic if FIC≦0.5; Additive if […]; Indifferent if […]; Antagonistic if FIC≧2.0.

[2] = test system: Stenotrophomonas maltophilia IS 5568; experiment: as above; assay type: cell-based; conditions: for FIC: S. maltophilia IS 5568, meropenem + compound, checkerboard
Description: as §1, §2, §3, §4

[3] = test system: Stenotrophomonas maltophilia IS 6069; experiment: as above; assay type: cell-based; conditions: S. maltophilia IS 6069, meropenem + compound
Description: as §1, §2
(§5) In the checkerboard assay one compound is serially diluted along the ordinate, and the second compound is serially diluted along the abscissa. […] A 50 μL aliquot of the compound was added to each well at the desired concentration(s) (i.e. 4×the final concentration) as well as a zero control. Stock solutions of 10 mg/mL of compound were prepared in DMSO, followed by two-fold serial dilutions in Müeller-Hinton media. Finally, 100 μL of bacteria (ca. 5×10^5 CFU/mL) was added to each well. Plate counts were performed on the control wells. Innoculum was prepared by taking an overnight culture in Müeller-Hinton media and diluting to McFarland's 0.5 standard, and diluting a further 1:100 prior to addition to the plate. Lanes with no bacteria added served as sterility controls and lanes with no meropenem or compound served as growth controls. The final volume in each well was 200 μL. The plates were allowed to grow overnight at 37° C. in a humid environment and were monitored at 625 nm for growth. […] Sterility controls and growth controls were included on each plate. The fractional inhibitory concentration (FIC) was determined as follows:
as §4

[4] = test system: Stenotrophomonas maltophilia IS 6081; experiment: as above; assay type: cell-based; conditions: S. maltophilia IS 6081, meropenem + compound
Description: as §1, §2, §5, §4

[5] = test system: Pseudomonas aeruginosa IS 6225; experiment: as above; assay type: cell-based; conditions: P. aeruginosa IS 6225, meropenem + compound
Description: as §1, §2, §5, §4

[6] = test system: Chryseobacterium meningosepticum IS 5824; experiment: as above; assay type: cell-based; conditions: for FIC: meropenem + compound, checkerboard
Description: as §1, §2, §5, §4

[7] = test system: Pseudomonas aeruginosa C-10; experiment: as above; assay type: cell-based; conditions: P. aeruginosa C-10; for FIC: meropenem + compound, checkerboard
Description: as §1, §2, §5, §4

[8] = biological target: T1, IMP-1 (Serratia marcescens, UniProt P52699); experiment: Inhibition of IMP-1-catalyzed hydrolysis of meropenem in vitro (310 nm); assay type: biochemical; conditions: for protection of meropenem from IMP-1-catalyzed hydrolysis in vitro: IMP-1 12 nM, meropenem 200 μM, test substance 100 μM, 310 nm
T1 construct: made in house; host or cells: Escherichia coli BL21(DE3) carrying pCIP4

[9] = biological target: T2, IMP-1 metallo-β-lactamase (Serratia marcescens, UniProt P52699); experiment: Inhibition of β-lactamases, nitrocefin hydrolysis; assay type: biochemical
T2 construct: made in house; host or cells: Escherichia coli BL21(DE3) carrying pCIP4
Description: IMP-1 metallo-β-lactamase was expressed in Esherichia coli BL21(DE3) carrying pCIP4 and purified as reported by Laraki et al. (Antimicrob. Agents Chemother. 1999, 43, 902-906). The homogeneity of the protein was confirmed by SDS-PAGE according to the method of Laemmli (Nature 1970, 227, 680-685). The molecular weight of purified IMP-1, Mr=25,112±0.5 Da, as determined by ESI-MS, was in agreement with that deduced from its amino acid sequence (Laraki et al. Antimicrob. Agents Chemother. 1999, 43, 890-901).
Assay conditions for IC50 determinations involved enzyme concentrations ranging between 2 and 6 nM. The concentration used for the nitrocefin substrate was 100 μM. Assays with OXA-10 and OXA-45 were conducted at pH 7.0 with 100 mM sodium phosphate buffer containing 25 mM sodium bicarbonate. Assays with KPC-2 and GC1 were performed at pH 7.0 in 50 mM HEPES buffer and assays with IMP-1 and VIM-2 were performed in the same buffer with the addition of 500 mM NaCl and 1 μM ZnSO4. BSA was used with all enzymes (except OXA-10 and KPC-2) at concentrations of 0.5-1.0 μg/mL.
Inhibitors were pre-incubated for 10 minutes at room temperature with enzyme assay solutions prior to the addition of the nitrocefin. These compounds were dissolved in DMSO and prepared at various concentrations such that the final concentration of DMSO was 1% during the pre-incubation. The reaction was initiated by the addition of the pre-incubated enzyme-cyclobutanone solution (90 μL) to a solution of nitrocefin in buffer (10 μL). Enzymatic activity was determined using the initial rate of increase in absorbance at 482 nm

[10] = test system: β-lactamases; experiment: β-Lactamase inhibition, result in words; assay type: biochemical
Description: In preferred embodiments, the compounds incorporate a good leaving group at the C3′ carbon that can be readily expelled as an anion. In some embodiments, the leaving group is a C3′-benzoylthio group, which may be substituted or unsubstituted, according to the definitions provided above for substituted or unsubstituted.
This effect correlates with the expected better leaving group ability of the benzoylthio group in the hydrolysis product versus the benzoate group in the comparative compound.

T1 sequence (P52699 19-246 limits assumed): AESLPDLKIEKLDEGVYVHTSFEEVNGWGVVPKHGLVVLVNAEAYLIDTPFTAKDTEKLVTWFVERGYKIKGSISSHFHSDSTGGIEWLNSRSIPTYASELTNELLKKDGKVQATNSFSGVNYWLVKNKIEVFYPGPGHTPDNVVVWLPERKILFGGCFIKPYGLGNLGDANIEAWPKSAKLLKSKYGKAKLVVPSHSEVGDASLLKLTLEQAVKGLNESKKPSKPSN
T2 sequence (P52699 19-246, looked up): as the sequence (P52699 19-246 limits assumed) above

Compound	FIC [1]	FIC [2]	FIC [3]	FIC [4]	FIC [5]	FIC ([6]; C. meningosepticum IS 5824)	FIC [7]	other results
O=C(Cc1cccs1)N[C@@H]1C(=O)N2C(C(=O)O)=C(CSC(=O)c3ccccc3)CS[C@H]12 [CMPD B]	0.1328	0.1289	0.1875	0.1328	0.375	0.5078	–	–
O=C(Cc1ccc(Cl)cc1)N[C@@H]1C(=O)N2C(C(=O)O)=C(CSC(=O)c3ccccc3)CS[C@H]12 [CMPD D]	0.2519	0.126	0.1875	1.03	2	0.2578	1	–
O=C(Cc1ccc(F)cc1)N[C@@H]1C(=O)N2C(C(=O)O)=C(CSC(=O)c3ccccc3)CS[C@H]12 [CMPD E]	0.1269	0.126	0.1875	1.03	2	0.2578	0.625	–
COc1cccc(CC(=O)N[C@@H]2C(=O)N3C(C(=O)O)=C(CSC(=O)c4ccccc4)CS[C@H]23)c1 [CMPD F]	0.2519	0.126	0.1875	0.281	3	0.2578	1.5	–
CC(=O)SCC1=C(C(=O)O)N2C(=O)[C@@H](NC(=O)Cc3cccs3)[C@H]2SC1 [Example 12, (6R,7R)-3-(acetylthiomethyl)-8-oxo-7-(2-(thiophen-2-yl)acetamido)-5-thia-1-azabicyclo[4.2.0]oct-2-ene-2-carboxylic acid]	–	–	–	–	–	–	–	performance as inhibitor [8]: poor performance
O=C(Cc1ccc(F)cc1)N[C@@H]1C(=O)N2C(C(=O)O)=C(CSC(=O)c3ccccc3)CS[C@H]12 [Example 16, (6R,7R)-3-(benzoylthiomethyl)-7-(2-(4-fluorophenyl)acetamido)-8-oxo-5-thia-1-azabicyclo[4.2.0]oct-2-ene-2-carboxylic acid]	–	–	–	–	–	–	–	protection of meropenem from IMP-1-catalyzed hydrolysis in vitro [8]: good protection
C[C@@H](O)[C@H]1C(=O)N2C(C(=O)O)=C(S[C@@H]3CN[C@H](C(=O)N(C)C)C3)[C@H](C)[C@H]12 [Mero, meropenem, reference compound]	–	–	–	–	–	–	–	MIC ([1]; Pseudomonas aeruginosa, IS5563, read-out: MIC Mero Alone, P. aeruginosa IS 5563): 64 µg/mL; MIC ([2]; Stenotrophomonas maltophilia, IS5568, read-out: MIC Mero Alone, S. maltophilia IS 5568): 64 µg/mL; MIC Mero Alone ([6]; C. meningosepticum IS 5824): 32 µg/mL; MIC ([6]; Elizabethkingia meningoseptica, IS5824, read-out: MIC Mero Alone, C. meningosepticum IS 5824): 64 µg/mL; MIC ([7]; Pseudomonas aeruginosa, C10, read-out: MIC Mero Alone): 16 µg/mL
OC(=S)c1ccccc1 [benzoylthio, reference compound]	–	–	–	–	–	–	–	inhibition of the MBL IMP-1 [9]: poor inhibitor
CO/N=C(\C(=O)N[C@@H]1C(=O)N2C(C(=O)O)=C(CSC(=O)c3ccco3)CS[C@H]12)c1csc(N)n1 [ceftiofur]	–	–	–	–	–	–	–	performance as inhibitor [8]: poor performance; protection of meropenem from IMP-1-catalyzed hydrolysis in vitro [8]: relatively poor protection
O=C(Cc1cccs1)NC1C(=O)N2C(C(=O)O)=C(COC(=O)c3ccccc3)CSC12 (centres unmarked) [oxygen analogue, reference compound]	–	–	–	–	–	–	–	β-lactamase inhibition [10]: substrate but not an inhibitor
